Patent US11034663B2, “Tetrahydronaphtho[1,2-b]furan-2(3H)-one derivatives and preparation and uses thereof” (SHANGHAI QINGDONG BIOTECHNOLOGY CO., LTD., priority 2017, dated 2021)
Entries after “also recorded” stand apart in the source; their conditions may differ.

Test system: adjuvant-induced arthritis in rats
Test: Therapeutic effect on adjuvant-induced arthritis in rats
Type: in vivo, Wistar male rats
Procedure: Wistar male rats, weighing 160-180 g, were raised in the SPF animal room of Shanghai University of Traditional Chinese Medicine, and employed for experiment following at least one week of culture, where the culture was performed at a temperature of 22+1° C. and a humidity of 55±5% under a 12-h light-dark cycle. The feed and water were sterilized and then freely taken by rats. All experiments were carried out in strict accordance with the relevant regulations for experimental animals.
Bacille Calmette-Guerin (BCG) H37Ra was purchased from Difco Co., Ltd. (US); and the YSL-7A Plethysmometer (paw volume) Meter was produced by the equipment station of Shandong Academy of Medical Sciences.
The establishment of the adjuvant-induced arthritis rat model and the administration therefor were described performed as follows. Liquid paraffin was sterilized at high temperature and pressure, added with a 10 mg/mL aqueous BCG solution and emulsified under repeated suction to produce a Freund's complete adjuvant (CFA) emulsion. In the experiment, individual rats were sensitized by intradermal injection of 0.1 mL of the CFA emulsion at the left hind paw to induce adjuvant arthritis in the limbs.
The grouping and administration were performed as follows. The male wistar rats were randomly divided into four groups according to weight each for 10 rats.
The rats in the blank control group were treated with 0.3% CMC solution daily by intragastric administration.
The rats in the arthritis solvent control group were similarly treated with 0.3% CMC solution daily by intragastric administration.
Rats from the two administration groups were respectively treated with 5 mg/kg and 20 mg/kg of compound 59 by oral administration once a day.
In addition to the blank control group, the rats in the other three groups were sensitized individually by […] injection of 0.1 mL of an adjuvant containing 10 mg/mL inactivated bacillus strain at the left hind foot pad. From the 10th day after the occurrence of arthritis, the rats in the administration groups were orally administered for therapeutic pharmacodynamic observation.
The therapeutic effect was monitored as follows. The rats were observed every day for the development of arthritis symptoms and weighed once every 2-3 days. A 5-level standard scoring system based on the clinical disease index was employed to evaluate the inflammation, where “0”: no redness and swelling; “1”: redness and swelling at the small toe joints; “2”: swelling at the toe joints and toes; “3”: swelling at feet below the ankle joint; and “4”: swelling at the entire feet including ankle joint. The two hind feet were measured for the volume to evaluate the swelling degree.

Compound: Cc1cc(OCc2ccccc2Br)c(C)c2c1CC[C@H]1C(CN(C)C)C(=O)O[C@@H]21 (mixture of isomers) [Compound 59, (3R/S,3aS,9bR)-8-(2-bromobenzyloxy)-3-dimethylaminomethyl-6,9-dimethyl-3a, 4,5,9b-tetrahydronaphtho [1,2-b]furan-2(3H)-one]
- effect on weight of rats with adjuvant-induced arthritis (5 mg/kg and 20 mg/kg, oral, once a day, from the 10th day after occurrence of arthritis, FIG. 1): showed similar effect on the weight; also recorded: no significant effect on the weight loss
- disease index of arthritis (clinical disease index, 0-4 score) (5 mg/kg and 20 mg/kg, oral, once a day, compared to the model group, P<0.05, FIG. 2): significantly lowered
- secondary foot lesions (foot swelling, opposite side) (5 mg/kg and 20 mg/kg, oral, once a day, compared to the model group, P<0.05, FIG. 3): significantly inhibited; also recorded: alleviating
- primary foot lesions (foot swelling, sensitization side) (5 mg/kg and 20 mg/kg, oral, once a day, compared to the model group, P<0.05, FIG. 4): significantly inhibited; also recorded: alleviating
- overall therapeutic effect on adjuvant-induced arthritis in rats (daily oral administration): remarkable therapeutic effect
